Data reported in ChEMBL document CHEMBL1201862, “PubChem BioAssay data set” (2004).
Active and inactive are the calls of the source.

Assays:
Assay type in all cases: functional
[1] = biological target: Serine/threonine-protein kinase pim-1 (Homo sapiens, UniProt P11309)
[2] = biological target: Dual specificity protein kinase CLK2 (Homo sapiens, UniProt P49760)
[3] = biological target: Casein kinase I isoform alpha (Homo sapiens, UniProt P48729)
[4] = biological target: T1, Serine/threonine-protein kinase TAO1 (Homo sapiens, UniProt Q7L7X3)
T1 sequence (Q7L7X3 whole entry): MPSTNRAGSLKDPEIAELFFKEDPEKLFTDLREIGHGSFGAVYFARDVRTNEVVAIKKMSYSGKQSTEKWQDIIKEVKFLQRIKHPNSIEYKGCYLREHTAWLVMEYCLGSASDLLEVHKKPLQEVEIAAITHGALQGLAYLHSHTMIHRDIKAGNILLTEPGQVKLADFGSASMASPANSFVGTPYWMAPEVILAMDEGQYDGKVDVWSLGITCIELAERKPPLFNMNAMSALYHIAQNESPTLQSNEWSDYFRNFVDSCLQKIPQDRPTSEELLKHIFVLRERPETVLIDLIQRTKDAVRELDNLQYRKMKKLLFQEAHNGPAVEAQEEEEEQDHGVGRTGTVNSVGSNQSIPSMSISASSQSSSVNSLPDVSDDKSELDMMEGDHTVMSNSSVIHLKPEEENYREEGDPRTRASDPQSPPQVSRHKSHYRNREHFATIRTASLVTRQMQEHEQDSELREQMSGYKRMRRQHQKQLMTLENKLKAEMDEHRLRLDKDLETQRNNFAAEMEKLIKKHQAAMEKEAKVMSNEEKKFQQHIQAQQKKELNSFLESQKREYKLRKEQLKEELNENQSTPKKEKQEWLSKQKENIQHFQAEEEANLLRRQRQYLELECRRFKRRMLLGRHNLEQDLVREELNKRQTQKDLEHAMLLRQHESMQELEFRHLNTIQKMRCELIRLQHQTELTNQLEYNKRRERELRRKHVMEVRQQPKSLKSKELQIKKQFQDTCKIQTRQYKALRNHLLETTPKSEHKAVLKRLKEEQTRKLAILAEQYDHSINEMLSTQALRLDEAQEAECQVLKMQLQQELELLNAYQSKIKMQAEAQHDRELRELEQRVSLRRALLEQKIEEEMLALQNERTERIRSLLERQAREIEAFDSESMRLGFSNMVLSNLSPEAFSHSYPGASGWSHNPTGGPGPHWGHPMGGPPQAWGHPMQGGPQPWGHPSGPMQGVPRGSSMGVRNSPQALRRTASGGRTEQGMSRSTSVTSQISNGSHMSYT

[5] = biological target: Tyrosine-protein kinase Fyn (Homo sapiens, UniProt P06241)
Tyrosine-protein kinase Fyn, sequence (P06241 whole entry): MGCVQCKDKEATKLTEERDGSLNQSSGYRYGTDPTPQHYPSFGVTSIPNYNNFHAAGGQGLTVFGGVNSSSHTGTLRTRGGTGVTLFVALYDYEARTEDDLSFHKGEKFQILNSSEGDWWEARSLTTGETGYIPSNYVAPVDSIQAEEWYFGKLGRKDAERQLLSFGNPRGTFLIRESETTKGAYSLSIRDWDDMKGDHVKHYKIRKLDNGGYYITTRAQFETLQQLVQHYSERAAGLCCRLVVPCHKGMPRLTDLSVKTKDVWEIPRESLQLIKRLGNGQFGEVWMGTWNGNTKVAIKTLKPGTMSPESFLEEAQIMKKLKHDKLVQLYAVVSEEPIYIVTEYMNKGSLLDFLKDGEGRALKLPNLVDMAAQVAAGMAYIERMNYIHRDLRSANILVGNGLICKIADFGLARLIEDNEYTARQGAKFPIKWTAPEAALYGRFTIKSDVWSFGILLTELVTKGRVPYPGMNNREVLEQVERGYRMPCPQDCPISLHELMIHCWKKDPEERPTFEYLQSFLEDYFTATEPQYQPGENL

[6] = biological target: Cyclin-dependent kinase 5 (Homo sapiens, UniProt Q00535);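 further: CDK5 measured as one member of a kinase profiling panel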
Cyclin-dependent kinase 5, sequence (Q00535 whole entry): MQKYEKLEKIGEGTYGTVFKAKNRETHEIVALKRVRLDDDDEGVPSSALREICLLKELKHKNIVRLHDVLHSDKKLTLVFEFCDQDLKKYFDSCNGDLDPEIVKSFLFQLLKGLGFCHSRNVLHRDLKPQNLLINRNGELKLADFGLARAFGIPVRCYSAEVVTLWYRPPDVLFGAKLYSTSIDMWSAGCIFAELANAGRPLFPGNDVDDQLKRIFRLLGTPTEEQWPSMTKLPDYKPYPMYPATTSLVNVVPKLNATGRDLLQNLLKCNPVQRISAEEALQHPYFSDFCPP

[7] = biological target: Dual specificity protein kinase CLK4 (Homo sapiens, UniProt Q9HAZ1)
[8] = biological target: Platelet-derived growth factor receptor alpha (Homo sapiens, UniProt P16234); assay: Navigating the Kinome. Panel member name: PDGFRA
Platelet-derived growth factor receptor alpha, sequence (P16234 whole entry): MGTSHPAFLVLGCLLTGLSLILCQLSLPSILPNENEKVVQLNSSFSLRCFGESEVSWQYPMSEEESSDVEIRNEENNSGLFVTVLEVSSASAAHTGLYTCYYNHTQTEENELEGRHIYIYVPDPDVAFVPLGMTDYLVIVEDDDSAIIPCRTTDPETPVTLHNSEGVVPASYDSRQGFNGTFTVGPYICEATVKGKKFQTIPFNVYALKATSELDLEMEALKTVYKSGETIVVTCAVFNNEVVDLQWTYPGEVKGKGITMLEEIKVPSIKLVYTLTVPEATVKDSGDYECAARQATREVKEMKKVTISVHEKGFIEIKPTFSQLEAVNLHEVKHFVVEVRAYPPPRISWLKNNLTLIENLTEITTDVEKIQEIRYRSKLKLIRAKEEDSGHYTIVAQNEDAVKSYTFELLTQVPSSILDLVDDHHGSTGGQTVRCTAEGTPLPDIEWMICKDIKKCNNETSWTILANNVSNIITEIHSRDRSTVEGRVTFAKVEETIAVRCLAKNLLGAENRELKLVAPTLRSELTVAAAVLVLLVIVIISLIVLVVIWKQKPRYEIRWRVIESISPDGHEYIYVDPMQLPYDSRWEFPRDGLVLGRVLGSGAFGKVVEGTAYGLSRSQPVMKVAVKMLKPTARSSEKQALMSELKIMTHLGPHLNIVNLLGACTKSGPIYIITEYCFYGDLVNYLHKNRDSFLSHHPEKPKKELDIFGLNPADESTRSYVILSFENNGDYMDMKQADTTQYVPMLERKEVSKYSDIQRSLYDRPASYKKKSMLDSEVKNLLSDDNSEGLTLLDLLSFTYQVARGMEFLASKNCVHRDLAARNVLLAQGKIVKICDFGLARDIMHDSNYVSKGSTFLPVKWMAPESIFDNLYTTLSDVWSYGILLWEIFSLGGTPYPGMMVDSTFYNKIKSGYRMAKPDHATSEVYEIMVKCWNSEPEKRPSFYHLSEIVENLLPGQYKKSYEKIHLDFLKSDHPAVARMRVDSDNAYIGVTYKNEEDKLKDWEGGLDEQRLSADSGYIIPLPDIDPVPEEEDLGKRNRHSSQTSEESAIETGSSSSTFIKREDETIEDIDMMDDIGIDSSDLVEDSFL

[9] = biological target: Glycogen synthase kinase-3 alpha (Homo sapiens, UniProt P49840);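 further: GSK3A result taken from a broad kinome-wide kinase panel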
Glycogen synthase kinase-3 alpha, sequence (P49840 whole entry): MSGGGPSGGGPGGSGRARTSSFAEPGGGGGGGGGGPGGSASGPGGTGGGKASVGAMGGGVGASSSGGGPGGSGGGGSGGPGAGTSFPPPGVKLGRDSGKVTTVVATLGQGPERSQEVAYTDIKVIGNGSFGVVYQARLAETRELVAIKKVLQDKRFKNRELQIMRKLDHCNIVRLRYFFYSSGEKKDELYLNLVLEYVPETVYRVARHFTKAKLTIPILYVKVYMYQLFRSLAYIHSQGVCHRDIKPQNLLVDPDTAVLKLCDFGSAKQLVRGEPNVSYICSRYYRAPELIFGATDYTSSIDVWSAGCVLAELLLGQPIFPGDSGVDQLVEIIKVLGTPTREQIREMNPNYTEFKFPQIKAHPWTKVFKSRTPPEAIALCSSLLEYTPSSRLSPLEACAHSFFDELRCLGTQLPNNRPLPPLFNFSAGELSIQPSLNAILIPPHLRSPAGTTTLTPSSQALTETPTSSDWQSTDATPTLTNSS

[10] = biological target: Rho-associated protein kinase 1 (Homo sapiens, UniProt Q13464);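 further: measured within a broad kinome-wide panel profiling many kinases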
Rho-associated protein kinase 1, sequence (Q13464 whole entry): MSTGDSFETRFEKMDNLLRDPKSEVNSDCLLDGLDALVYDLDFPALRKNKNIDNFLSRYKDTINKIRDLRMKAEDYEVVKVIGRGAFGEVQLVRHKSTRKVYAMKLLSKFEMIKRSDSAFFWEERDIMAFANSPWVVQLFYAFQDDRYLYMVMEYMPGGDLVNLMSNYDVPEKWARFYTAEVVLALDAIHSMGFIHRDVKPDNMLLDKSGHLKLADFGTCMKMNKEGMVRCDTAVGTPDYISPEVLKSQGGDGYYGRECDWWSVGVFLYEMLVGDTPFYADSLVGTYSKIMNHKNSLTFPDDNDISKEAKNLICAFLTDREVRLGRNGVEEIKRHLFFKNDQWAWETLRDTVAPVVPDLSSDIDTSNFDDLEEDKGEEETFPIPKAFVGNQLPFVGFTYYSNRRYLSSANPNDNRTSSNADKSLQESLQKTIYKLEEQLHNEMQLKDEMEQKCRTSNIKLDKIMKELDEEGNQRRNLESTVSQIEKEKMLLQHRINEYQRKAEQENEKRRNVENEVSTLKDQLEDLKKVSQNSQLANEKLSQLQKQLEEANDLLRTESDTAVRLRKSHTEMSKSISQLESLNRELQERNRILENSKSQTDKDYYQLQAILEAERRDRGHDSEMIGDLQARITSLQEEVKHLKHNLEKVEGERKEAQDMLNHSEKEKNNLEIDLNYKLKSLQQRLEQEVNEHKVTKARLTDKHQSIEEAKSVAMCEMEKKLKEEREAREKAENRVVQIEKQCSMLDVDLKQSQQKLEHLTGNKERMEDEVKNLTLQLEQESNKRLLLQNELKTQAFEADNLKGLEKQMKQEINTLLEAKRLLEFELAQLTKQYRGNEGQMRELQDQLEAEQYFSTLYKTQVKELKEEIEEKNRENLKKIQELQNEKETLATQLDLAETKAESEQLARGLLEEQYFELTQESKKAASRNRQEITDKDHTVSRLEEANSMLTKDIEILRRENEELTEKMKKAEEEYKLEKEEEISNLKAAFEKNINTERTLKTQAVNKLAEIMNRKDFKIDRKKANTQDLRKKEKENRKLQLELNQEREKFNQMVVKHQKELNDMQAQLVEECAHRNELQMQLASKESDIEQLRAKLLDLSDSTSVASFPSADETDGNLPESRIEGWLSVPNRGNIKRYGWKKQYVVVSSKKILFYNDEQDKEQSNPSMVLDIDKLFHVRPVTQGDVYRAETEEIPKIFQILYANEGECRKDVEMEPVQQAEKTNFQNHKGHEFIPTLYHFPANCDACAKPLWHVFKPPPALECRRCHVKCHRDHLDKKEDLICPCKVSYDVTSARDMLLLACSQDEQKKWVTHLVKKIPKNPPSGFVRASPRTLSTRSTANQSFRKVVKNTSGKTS

[11] = biological target: Hepatocyte growth factor receptor (Homo sapiens, UniProt P08581);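 further: kinase panel profiling across the kinome, with MET as the panel member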
[12] = biological target: T2, Tyrosine-protein kinase JAK3 (Homo sapiens, UniProt P52333)
T2 sequence (P52333 whole entry): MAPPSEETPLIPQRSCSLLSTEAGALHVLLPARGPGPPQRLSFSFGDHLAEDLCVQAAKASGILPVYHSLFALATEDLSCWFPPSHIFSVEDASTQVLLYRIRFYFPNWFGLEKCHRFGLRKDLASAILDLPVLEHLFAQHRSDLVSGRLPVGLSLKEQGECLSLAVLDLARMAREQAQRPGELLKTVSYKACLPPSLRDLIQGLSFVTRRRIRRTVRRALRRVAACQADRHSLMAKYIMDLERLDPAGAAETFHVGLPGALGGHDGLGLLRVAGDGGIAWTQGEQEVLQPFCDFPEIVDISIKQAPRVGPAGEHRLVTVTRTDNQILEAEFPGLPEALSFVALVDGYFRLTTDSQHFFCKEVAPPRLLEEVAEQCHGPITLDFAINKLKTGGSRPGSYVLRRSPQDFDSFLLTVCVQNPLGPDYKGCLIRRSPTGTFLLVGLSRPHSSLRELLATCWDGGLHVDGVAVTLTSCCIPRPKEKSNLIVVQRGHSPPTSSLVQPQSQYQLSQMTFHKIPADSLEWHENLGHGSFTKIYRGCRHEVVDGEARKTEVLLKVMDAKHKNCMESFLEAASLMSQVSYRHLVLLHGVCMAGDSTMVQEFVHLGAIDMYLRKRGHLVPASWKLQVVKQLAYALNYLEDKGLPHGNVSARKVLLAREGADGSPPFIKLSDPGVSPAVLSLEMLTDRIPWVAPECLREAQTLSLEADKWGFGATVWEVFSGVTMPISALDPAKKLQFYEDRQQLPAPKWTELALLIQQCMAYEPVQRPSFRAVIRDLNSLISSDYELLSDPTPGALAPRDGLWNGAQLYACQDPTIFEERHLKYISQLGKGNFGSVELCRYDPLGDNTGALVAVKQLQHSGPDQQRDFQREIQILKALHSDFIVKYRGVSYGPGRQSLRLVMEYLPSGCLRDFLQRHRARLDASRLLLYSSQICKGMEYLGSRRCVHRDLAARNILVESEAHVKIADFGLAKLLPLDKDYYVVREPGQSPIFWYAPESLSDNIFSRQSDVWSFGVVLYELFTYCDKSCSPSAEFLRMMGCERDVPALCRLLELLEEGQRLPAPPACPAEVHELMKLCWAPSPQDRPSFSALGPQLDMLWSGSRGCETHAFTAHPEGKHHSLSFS

Dual specificity protein kinase CLK2, sequence (P49760 whole entry, canonical isoform): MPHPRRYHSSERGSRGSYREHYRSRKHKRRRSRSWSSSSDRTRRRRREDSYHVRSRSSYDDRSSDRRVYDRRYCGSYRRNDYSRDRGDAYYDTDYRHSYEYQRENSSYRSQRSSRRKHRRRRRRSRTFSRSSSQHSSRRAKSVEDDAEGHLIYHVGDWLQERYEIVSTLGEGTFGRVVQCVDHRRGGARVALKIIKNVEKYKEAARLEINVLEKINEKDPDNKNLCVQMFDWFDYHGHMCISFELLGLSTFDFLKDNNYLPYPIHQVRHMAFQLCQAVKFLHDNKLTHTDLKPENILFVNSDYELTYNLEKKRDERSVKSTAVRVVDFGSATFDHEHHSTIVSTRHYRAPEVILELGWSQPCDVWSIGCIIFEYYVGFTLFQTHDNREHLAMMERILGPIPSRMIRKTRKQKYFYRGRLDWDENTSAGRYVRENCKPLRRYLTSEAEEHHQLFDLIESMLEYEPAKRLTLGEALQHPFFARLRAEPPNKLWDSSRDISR
Casein kinase I isoform alpha, sequence (P48729 whole entry, canonical isoform): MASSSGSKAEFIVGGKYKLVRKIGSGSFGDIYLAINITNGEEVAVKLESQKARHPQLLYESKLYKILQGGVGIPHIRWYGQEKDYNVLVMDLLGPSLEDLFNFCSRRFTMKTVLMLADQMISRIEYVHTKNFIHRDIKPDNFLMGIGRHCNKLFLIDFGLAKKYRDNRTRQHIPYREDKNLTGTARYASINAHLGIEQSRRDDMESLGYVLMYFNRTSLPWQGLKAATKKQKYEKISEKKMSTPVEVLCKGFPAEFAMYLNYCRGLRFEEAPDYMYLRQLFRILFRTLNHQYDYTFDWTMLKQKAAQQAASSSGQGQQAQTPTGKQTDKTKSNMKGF
Serine/threonine-protein kinase pim-1, sequence (P11309 whole entry): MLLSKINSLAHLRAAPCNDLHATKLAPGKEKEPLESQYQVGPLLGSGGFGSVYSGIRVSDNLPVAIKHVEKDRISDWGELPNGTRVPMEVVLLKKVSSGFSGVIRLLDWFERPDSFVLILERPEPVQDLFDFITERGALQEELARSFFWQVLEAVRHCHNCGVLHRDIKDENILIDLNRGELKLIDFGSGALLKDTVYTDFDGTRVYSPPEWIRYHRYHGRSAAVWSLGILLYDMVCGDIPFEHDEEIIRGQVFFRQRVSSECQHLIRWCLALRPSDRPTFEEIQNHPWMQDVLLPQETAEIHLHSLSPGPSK

| Ki [1] | Ki [2] | Ki [3] | Ki [4] | Ki [5] | Ki [6] | Ki [7] | Ki [8] | Ki [9] | Ki [10] | Ki [11] | Ki [12] | SMILES |
| --- | --- | --- | --- | --- | --- | --- | --- | --- | --- | --- | --- | --- |
| 25.1 µM (active) | 25.1 µM (active) | 6.31 µM (active) | 12.6 µM (active) | 100 µM (active) | 0.0501 µM (active) | 1.26 µM (active) | 5.01 µM (active) | 63.1 µM (active) | 50.1 µM (active) |  |  | O=c1[nH]c2cc(Br)cnc2[nH]1 |
| > 6.31 µM (inactive) | > 3.98 µM (inactive) | > 3.98 µM (inactive) | > 2 µM (inactive) | > 6.31 µM (inactive) | > 3.16 µM (inactive) | > 1.58 µM (inactive) | > 2.51 µM (inactive) | > 3.98 µM (inactive) | 0.0316 µM (active) | > 2.51 µM (inactive) | 0.00398 µM (active) | CCC1CC(NS(=O)(=O)C2CC2)CC1c1ncc2cnc3[nH]ccc3n12 (stereo not given) |
| > 6.31 µM (inactive) | > 3.98 µM (inactive) | > 3.98 µM (inactive) | > 6.31 µM (inactive) | > 6.31 µM (inactive) | > 3.16 µM (inactive) |  | > 2.51 µM (inactive) | 0.0158 µM (active) | > 3.98 µM (inactive) | > 2.51 µM (inactive) | > 5.01 µM (inactive) | O=C(Nc1cccc(C(F)(F)F)n1)Nc1ccnc2cc(OC(F)F)ccc12 |
| > 5.01 µM (inactive) | > 3.98 µM (inactive) | > 3.98 µM (inactive) | > 6.31 µM (inactive) | > 6.31 µM (inactive) | > 3.16 µM (inactive) | 1.26 µM (active) | > 2.51 µM (inactive) | 0.0158 µM (active) | > 3.98 µM (inactive) | > 2.51 µM (inactive) | 3.98 µM (active) | O=C(Nc1cccc(C(F)(F)F)n1)Nc1ccnc2cc(Cl)ccc12 |
